Columns and labels:
Assay in all cases: combination Emax (second highest fraction inhibited in the dose matrix, 72 h); higher = more inhibition; extreme values may be limits of the assay
AGS (Gastric Carcinoma) = tested on: AGS (Gastric Carcinoma)
Outline: (§1)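 After 24 hours at 37°C and 5% CO2 in 1536-well plates, cells in DMEM/F12 or RPMI plus 10% FBS received two-drug dose matrices for 72 hours. Viability came from CellTiter-Glo 2.0 luminescence and was scaled as inhibition, anchored at 0 by vehicle wells and at 1 by blank wells. Combination Emax is taken as the second-highest inhibition in the matrix, and Bliss excess as the observed combination effect less EA + EB − EA·EB, with EA and EB the single-agent effects.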

[1] = tested on: LS-180 (Colorectal Carcinoma)
Outline: as §1

[2] = tested on: MDA-MB-361 (Breast Carcinoma)
Outline: as §1

[3] = tested on: HT-1376 (Bladder Carcinoma)
Outline: as §1

[4] = tested on: DoTc2-4510 (Cervical Carcinoma)
Outline: as §1

[5] = tested on: SK-ES-1 (Ewing's Sarcoma)
Outline: as §1

T98G (Glioblastoma) = tested on: T98G (Glioblastoma)
Outline: as §1

[6] = tested on: HO-1-N-1 (Oral Cavity Carcinoma)
Outline: as §1

[7] = tested on: COLO-205 (Colorectal Carcinoma)
Outline: as §1

[8] = tested on: Hs-578-T (Breast Carcinoma)
Outline: as §1

[9] = tested on: B-CPAP (Thyroid Gland Carcinoma)
Outline: as §1

[10] = tested on: NCI-H82 (Small Cell Lung Carcinoma)
Outline: as §1

Row | Structure (SMILES) | combination Emax (AGS (Gastric Carcinoma)) | combination Emax [1] | combination Emax [2] | combination Emax [3] | combination Emax [4] | combination Emax [5] | combination Emax (T98G (Glioblastoma)) | combination Emax [6] | combination Emax [7] | combination Emax [8] | combination Emax [9] | combination Emax [10]
1 | CS(=O)(=O)CCNCc1ccc(-c2ccc3ncnc(Nc4ccc(OCc5cccc(F)c5)c(Cl)c4)c3c2)o1 [Lapatinib] + C[C@@H](Oc1cc(-c2cnn(C3CCNCC3)c2)cnc1N)c1c(Cl)ccc(F)c1Cl [Crizotinib] (first compound max 10 µM, 7x7, partner max 10 µM) | 0.976 | 0.908 | 0.859 | 0.255 | 0.942 | 0.938 | 0.949 | 0.979 | 0.939 | 0.991 | 0.984 | 0.936
2 | CC(=O)c1c(C)c2cnc(Nc3ccc(N4CCNCC4)cn3)nc2n(C2CCCC2)c1=O [Palbociclib] + Cn1cnc2c(F)c(Nc3ccc(Br)cc3Cl)c(C(=O)NOCCO)cc21 [Selumetinib] (first compound max 10 µM, 7x7, partner max 10 µM) | 0.906 | 0.759 | 0.154 | 0.0425 | 0.117 | 0.622 | 0.374 | 0.745 | 0.788 | 0.344 | 0.356 | 0.627
3 | Cc1c2c(nn1C)CSCc1cc(n(C)n1)CSc1cc(c3ccccc3c1)OCCCc1c(C(=O)O)n(C)c3c-2c(Cl)ccc13 [AZD5991] + C[C@@H]1COCCN1C2=NC(=NC(=C2)C3(CC3)[S@](=N)(=O)C)C4=C5C=CNC5=NC=C4 [AZD6738] (first compound max 1 µM, 7x7, partner max 10 µM) | 0.821 | 0.707 | 0.962 | 0.455 | 0.677 | 1 | 0.875 | 0.928 | 0.511 | 0.891 | 0.522 | 0.99
4 | CN(CCO)CC[C@H](CSc1ccccc1)Nc1ccc(S(=O)(=O)NC(=O)c2ccc(N3CCC([C@@H](O)c4ccccc4-c4ccc(Cl)cc4)CC3)cc2)cc1S(=O)(=O)C(F)(F)F [AZD4320] + C[C@@H]1COCCN1C2=NC(=NC(=C2)C3(CC3)[S@](=N)(=O)C)C4=C5C=CNC5=NC=C4 [AZD6738] (first compound max 1 µM, 7x7, partner max 10 µM) | 0.993 | 0.739 | 0.918 | 0.718 | 0.912 | 1 | 0.954 | 0.937 | 0.623 | 0.991 | 0.804 | 0.932
5 | Cc1c2c(nn1C)CSCc1cc(n(C)n1)CSc1cc(c3ccccc3c1)OCCCc1c(C(=O)O)n(C)c3c-2c(Cl)ccc13 [AZD5991] + CCN(CCO)CCCOc1ccc2c(Nc3cc(CC(=O)Nc4cccc(F)c4)[nH]n3)ncnc2c1 [AZD2811] (first compound max 1 µM, 7x7, partner max 1 µM) | 0.51 | 0.342 | 0.913 | 0.243 | 0.287 | 1 | 0.585 | 0.993 | 0.948 | 0.81 | 0.313 | 0.972
6 | NC1(C(=O)N[C@@H](CCO)c2ccc(Cl)cc2)CCN(c2ncnc3[nH]ccc23)CC1 [Capivasertib] + Cn1cnc2c(F)c(Nc3ccc(Br)cc3Cl)c(C(=O)NOCCO)cc21 [Selumetinib] (first compound max 10 µM, 7x7, partner max 10 µM) | 0.953 | 0.771 | 0.493 | 0.18 | 0.408 | 0.429 | 0.49 | 0.848 | 0.778 | 0.746 | 0.499 | 0.903
7 | CC(=O)Nc1cccc(-n2c(=O)n(C3CC3)c(=O)c3c(Nc4ccc(I)cc4F)n(C)c(=O)c(C)c32)c1 [Trametinib] + Cc1nc(-c2cn3c(n2)-c2ccc(-c4cnn(C(C)(C)C(N)=O)c4)cc2OCC3)n(C(C)C)n1 [Taselisib] (first compound max 1 µM, 7x7, partner max 10 µM) | 1 | 0.903 | 0.976 | 0.339 | 0.841 | 0.696 | 0.855 | 0.991 | 0.946 | 0.919 | 0.558 | 0.243
8 | Cc1cc2ncnn2cc1Nc1ncc2c(n1)n(C1CCOCC1)c(=O)n2C [AZD7648] + CCN(CCO)CCCOc1ccc2c(Nc3cc(CC(=O)Nc4cccc(F)c4)[nH]n3)ncnc2c1 [AZD2811] (first compound max 10 µM, 7x7, partner max 1 µM) | 0.529 | 0.388 | 0.61 | 0.235 | 0.301 | 0.964 | 0.467 | 0.826 | 0.897 | 0.623 | 0.283 | 0.595
9 | NC1(C(=O)N[C@@H](CCO)c2ccc(Cl)cc2)CCN(c2ncnc3[nH]ccc23)CC1 [Capivasertib] + CCN(CCO)CCCOc1ccc2c(Nc3cc(CC(=O)Nc4cccc(F)c4)[nH]n3)ncnc2c1 [AZD2811] (first compound max 10 µM, 7x7, partner max 1 µM) | 0.706 | 0.312 | 0.718 | 0.156 | 0.279 | 0.974 | 0.437 | 0.833 | 0.831 | 0.732 | 0.394 | 0.925
